# What was measured:
# Assay type in all cases: functional
# Anaerococcus prevotii = assay: Antimicrobial activity against Anaerococcus prevotii ATCC 9321 by agar dilution method in presence of 5% laked sheep blood
# [1] = tested on: Prevotella melaninogenica; assay: Antimicrobial activity against Prevotella melaninogenica JCM 6325 by agar dilution method in presence of 5% laked sheep blood; conditions: ATCC 25845
# [2] = tested on: Peptostreptococcus anaerobius; assay: Antimicrobial activity against Peptostreptococcus anaerobius by agar dilution method in presence of 5% laked sheep blood
# [3] = tested on: Peptostreptococcus anaerobius; assay: Antimicrobial activity against Peptostreptococcus anaerobius ATCC 27337 by agar dilution method in presence of 5% laked sheep blood
# Bacteroides fragilis [4] = assay: Antimicrobial activity against Bacteroides fragilis GAI 5562 by agar dilution method in presence of 5% laked sheep blood
# [5] = tested on: Porphyromonas asaccharolytica; assay: Antimicrobial activity against Porphyromonas asaccharolyticus by agar dilution method in presence of 5% laked sheep blood
# Prevotella intermedia = assay: Antimicrobial activity against Prevotella intermedia by agar dilution method in presence of 5% laked sheep blood
# Fusobacterium varium = assay: Antimicrobial activity against Fusobacterium varium by agar dilution method in presence of 5% laked sheep blood
# [6] = tested on: Limosilactobacillus fermentum; assay: Antimicrobial activity against Lactobacillus fermentum JCM 1173 by agar dilution method in presence of 5% laked sheep blood
# [7] = tested on: Bifidobacterium pseudolongum; assay: Antimicrobial activity against Bifidobacterium pseudolongum ATCC 25526 by agar dilution method in presence of 5% laked sheep blood
# Fusobacterium sp. = assay: Antimicrobial activity against Fusobacterium sp. by agar dilution method in presence of 5% laked sheep blood
# Bacteroides stercoris = assay: Antimicrobial activity against Bacteroides stercoris by agar dilution method in presence of 5% laked sheep blood
# Fusobacterium nucleatum [8] = assay: Antimicrobial activity against Fusobacterium nucleatum ATCC 25586 by agar dilution method in presence of 5% laked sheep blood
# Parvimonas micra = assay: Antimicrobial activity against Parvimonas micra by agar dilution method in presence of 5% laked sheep blood
# Atopobium parvulum = assay: Antimicrobial activity against Atopobium parvulum VPI 0546 by agar dilution method in presence of 5% laked sheep blood; conditions: Lancefieldella parvula
# Lactobacillus brevis = assay: Antimicrobial activity against Lactobacillus brevis subsp. brevis JCM 1059 by agar dilution method in presence of 5% laked sheep blood; conditions: Levilactobacillus brevis
# Bacteroides caccae = assay: Antimicrobial activity against Bacteroides caccae by agar dilution method in presence of 5% laked sheep blood
# Clostridioides difficile = assay: Antimicrobial activity against Clostridium difficile by agar dilution method in presence of 5% laked sheep blood
# Phocaeicola vulgatus = assay: Antimicrobial activity against Bacteroides vulgatus GAI 0673 by agar dilution method in presence of 5% laked sheep blood
# [9] = tested on: Peptoniphilus asaccharolyticus; assay: Antimicrobial activity against Peptoniphilus asaccharolyticus WAL 3218 by agar dilution method in presence of 5% laked sheep blood
# Bacteroides fragilis [10] = assay: Antimicrobial activity against Bacteroides fragilis ATCC 25285 by agar dilution method in presence of 5% laked sheep blood; conditions: NCTC 9343
# [11] = Antimicrobial activity against Bifidobacterium adolescentis ATCC 15703 by agar dilution method in presence of 5% laked sheep blood
# [12] = tested on: Prevotella melaninogenica; assay: Antimicrobial activity against Prevotella melaninogenica by agar dilution method in presence of 5% laked sheep blood
# [13] = tested on: Fusobacterium necrophorum; assay: Antimicrobial activity against Fusobacterium necrophorum by agar dilution method in presence of 5% laked sheep blood
# Porphyromonas uenonis = assay: Antimicrobial activity against Porphyromonas uenonis by agar dilution method in presence of 5% laked sheep blood
# Fusobacterium nucleatum [14] = assay: Antimicrobial activity against Fusobacterium nucleatum by agar dilution method in presence of 5% laked sheep blood
# Bacteroides uniformis = assay: Antimicrobial activity against Bacteroides uniformis by agar dilution method in presence of 5% laked sheep blood
# Bacteroides fragilis [15] = assay: Antimicrobial activity against carbapenemase-producing Bacteroides fragilis GAI 30079 by agar dilution method in presence of 5% laked sheep blood
# Clostridium perfringens [16] = assay: Antimicrobial activity against Clostridium perfringens by agar dilution method in presence of 5% laked sheep blood
# Clostridium perfringens [17] = assay: Antimicrobial activity against Clostridium perfringens ATCC 13124 by agar dilution method in presence of 5% laked sheep blood
# [18] = tested on: Porphyromonas asaccharolytica; assay: Antimicrobial activity against Porphyromonas asaccharolyticus ATCC 25260 by agar dilution method in presence of 5% laked sheep blood; conditions: DSM 20707
# Porphyromonas gingivalis [19] = assay: Antimicrobial activity against Porphyromonas gingivalis ATCC 33277 by agar dilution method in presence of 5% laked sheep blood
# Eggerthella lenta = assay: Antimicrobial activity against Eggerthella lenta by agar dilution method in presence of 5% laked sheep blood
# [20] = tested on: Peptoniphilus asaccharolyticus; assay: Antimicrobial activity against Peptoniphilus asaccharolyticus by agar dilution method in presence of 5% laked sheep blood
# Odoribacter splanchnicus = assay: Antimicrobial activity against Odoribacter splanchnicus by agar dilution method in presence of 5% laked sheep blood
# Prevotella buccae = assay: Antimicrobial activity against Prevotella buccae ATCC 33574 by agar dilution method in presence of 5% laked sheep blood; conditions: Segatella buccae
# [21] = tested on: Paeniclostridium sordellii; assay: Antimicrobial activity against Clostridium sordellii ATCC 9714 by agar dilution method in presence of 5% laked sheep blood; conditions: Paraclostridium sordellii
# Peptoniphilus indolicus = assay: Antimicrobial activity against Peptoniphilus indolicus GAI 0915 by agar dilution method in presence of 5% laked sheep blood
# [22] = tested on: Bacteroides thetaiotaomicron; assay: Antimicrobial activity against Bacteroides thetaiotaomicron by agar dilution method in presence of 5% laked sheep blood
# Porphyromonas gingivalis [23] = assay: Antimicrobial activity against Porphyromonas gingivalis by agar dilution method in presence of 5% laked sheep blood
# Fusobacterium mortiferum = assay: Antimicrobial activity against Fusobacterium mortiferum by agar dilution method in presence of 5% laked sheep blood
# [24] = tested on: Sutterella wadsworthensis; assay: Antimicrobial activity against Sutterella wadsworthensis ATCC 51579 by agar dilution method in presence of 5% laked sheep blood
# [25] = Antimicrobial activity against Veillonella dispar ATCC 17748 by agar dilution method in presence of 5% laked sheep blood
# [26] = Antimicrobial activity against Finegoldia magna ATCC 29328 by agar dilution method in presence of 5% laked sheep blood
compound,measurement,setting,value
C[C@@H](O)[C@H]1C(=O)N2C(C(=O)O)=C(S[C@@H]3CN[C@H](CNS(N)(=O)=O)C3)[C@H](C)[C@H]12 [DORIPENEM],MIC,Anaerococcus prevotii,0.25 µg/mL
same,MIC,[1],0.125 µg/mL
same,MIC50,[2],0.25 µg/mL
same,MIC90,[2],2 µg/mL
same,MIC,[3],0.5 µg/mL
same,MIC,Bacteroides fragilis [4],0.5 µg/mL
same,MIC50,[5],0.03 µg/mL
same,MIC90,[5],0.06 µg/mL
same,MIC50,Prevotella intermedia,0.06 µg/mL
same,MIC90,Prevotella intermedia,0.125 µg/mL
same,MIC50,Fusobacterium varium,0.03 µg/mL
same,MIC90,Fusobacterium varium,0.25 µg/mL
same,MIC,[6],0.06 µg/mL
same,MIC,[7],0.5 µg/mL
same,MIC50,Fusobacterium sp.,0.03 µg/mL
same,MIC90,Fusobacterium sp.,0.25 µg/mL
same,MIC50,Bacteroides stercoris,0.5 µg/mL
same,MIC90,Bacteroides stercoris,4 µg/mL
same,MIC,Fusobacterium nucleatum [8],4 µg/mL
same,MIC50,Parvimonas micra,0.06 µg/mL
same,MIC90,Parvimonas micra,0.125 µg/mL
same,MIC,Atopobium parvulum,1 µg/mL
same,MIC,Lactobacillus brevis,0.125 µg/mL
same,MIC50,Bacteroides caccae,0.5 µg/mL
same,MIC90,Bacteroides caccae,4 µg/mL
same,MIC50,Clostridioides difficile,2 µg/mL
same,MIC90,Clostridioides difficile,4 µg/mL
same,MIC,Phocaeicola vulgatus,0.25 µg/mL
same,MIC,[9],0.03 µg/mL
same,MIC,Bacteroides fragilis [10],0.5 µg/mL
same,MIC,[11],0.25 µg/mL
same,MIC50,[12],0.06 µg/mL
same,MIC90,[12],0.125 µg/mL
same,MIC50,[13],0.03 µg/mL
same,MIC90,[13],0.25 µg/mL
same,MIC50,Porphyromonas uenonis,0.03 µg/mL
same,MIC90,Porphyromonas uenonis,0.06 µg/mL
same,MIC50,Fusobacterium nucleatum [14],0.03 µg/mL
same,MIC90,Fusobacterium nucleatum [14],0.25 µg/mL
same,MIC50,Bacteroides uniformis,0.5 µg/mL
same,MIC90,Bacteroides uniformis,4 µg/mL
same,MIC,Bacteroides fragilis [15],> 128 µg/mL
same,MIC50,Clostridium perfringens [16],0.03 µg/mL
same,MIC90,Clostridium perfringens [16],0.06 µg/mL
same,MIC,Clostridium perfringens [17],0.03 µg/mL
same,MIC,[18],0.03 µg/mL
same,MIC,Porphyromonas gingivalis [19],≤ 0.015 µg/mL
same,MIC50,Eggerthella lenta,0.25 µg/mL
same,MIC90,Eggerthella lenta,0.25 µg/mL
same,MIC50,[20],≤ 0.015 µg/mL
same,MIC90,[20],0.125 µg/mL
same,MIC50,Odoribacter splanchnicus,0.5 µg/mL
same,MIC90,Odoribacter splanchnicus,4 µg/mL
same,MIC,Prevotella buccae,0.25 µg/mL
same,MIC,[21],≤ 0.015 µg/mL
same,MIC,Peptoniphilus indolicus,≤ 0.015 µg/mL
same,MIC50,[22],0.5 µg/mL
same,MIC90,[22],1 µg/mL
same,MIC50,Porphyromonas gingivalis [23],0.03 µg/mL
same,MIC90,Porphyromonas gingivalis [23],0.06 µg/mL
same,MIC50,Fusobacterium mortiferum,0.03 µg/mL
same,MIC90,Fusobacterium mortiferum,0.25 µg/mL
same,MIC,[24],0.25 µg/mL
same,MIC,[25],0.06 µg/mL
same,MIC,[26],0.25 µg/mL
C[C@@H](O)[C@H]1C(=O)N2C(C(=O)O)=C(S[C@@H]3CN[C@H](C(=O)N(C)C)C3)[C@H](C)[C@H]12 [MEROPENEM],MIC,Anaerococcus prevotii,0.25 µg/mL
same,MIC,[1],0.125 µg/mL
same,MIC50,[2],0.25 µg/mL
same,MIC90,[2],2 µg/mL
same,MIC,[3],0.5 µg/mL
same,MIC,Bacteroides fragilis [4],0.125 µg/mL
same,MIC50,[5],≤ 0.015 µg/mL
same,MIC90,[5],0.03 µg/mL
same,MIC50,Prevotella intermedia,0.06 µg/mL
same,MIC90,Prevotella intermedia,0.125 µg/mL
same,MIC50,Fusobacterium varium,0.03 µg/mL
same,MIC90,Fusobacterium varium,0.125 µg/mL
same,MIC,[6],0.25 µg/mL
same,MIC,[7],0.25 µg/mL
same,MIC50,Fusobacterium sp.,0.03 µg/mL
same,MIC90,Fusobacterium sp.,0.125 µg/mL
same,MIC50,Bacteroides stercoris,0.25 µg/mL
same,MIC90,Bacteroides stercoris,4 µg/mL
same,MIC,Fusobacterium nucleatum [8],8 µg/mL
same,MIC50,Parvimonas micra,0.06 µg/mL
same,MIC90,Parvimonas micra,0.125 µg/mL
same,MIC,Atopobium parvulum,0.5 µg/mL
same,MIC,Lactobacillus brevis,0.5 µg/mL
same,MIC50,Bacteroides caccae,0.25 µg/mL
same,MIC90,Bacteroides caccae,4 µg/mL
same,MIC50,Clostridioides difficile,2 µg/mL
same,MIC90,Clostridioides difficile,4 µg/mL
same,MIC,Phocaeicola vulgatus,0.125 µg/mL
same,MIC,[9],≤ 0.015 µg/mL
same,MIC,Bacteroides fragilis [10],0.25 µg/mL
same,MIC,[11],0.125 µg/mL
same,MIC50,[12],0.125 µg/mL
same,MIC90,[12],0.25 µg/mL
same,MIC50,[13],0.03 µg/mL
same,MIC90,[13],0.125 µg/mL
same,MIC50,Porphyromonas uenonis,≤ 0.015 µg/mL
same,MIC90,Porphyromonas uenonis,0.03 µg/mL
same,MIC50,Fusobacterium nucleatum [14],0.03 µg/mL
same,MIC90,Fusobacterium nucleatum [14],0.125 µg/mL
same,MIC50,Bacteroides uniformis,0.25 µg/mL
same,MIC90,Bacteroides uniformis,4 µg/mL
same,MIC,Bacteroides fragilis [15],> 128 µg/mL
same,MIC50,Clostridium perfringens [16],≤ 0.015 µg/mL
same,MIC90,Clostridium perfringens [16],0.03 µg/mL
same,MIC,Clostridium perfringens [17],≤ 0.015 µg/mL
same,MIC,[18],≤ 0.015 µg/mL
same,MIC,Porphyromonas gingivalis [19],≤ 0.015 µg/mL
same,MIC50,Eggerthella lenta,0.5 µg/mL
same,MIC90,Eggerthella lenta,1 µg/mL
same,MIC50,[20],≤ 0.015 µg/mL
same,MIC90,[20],0.125 µg/mL
same,MIC50,Odoribacter splanchnicus,0.25 µg/mL
same,MIC90,Odoribacter splanchnicus,4 µg/mL
same,MIC,Prevotella buccae,0.25 µg/mL
same,MIC,[21],0.03 µg/mL
same,MIC,Peptoniphilus indolicus,≤ 0.015 µg/mL
same,MIC50,[22],0.5 µg/mL
same,MIC90,[22],2 µg/mL
same,MIC50,Porphyromonas gingivalis [23],≤ 0.015 µg/mL
same,MIC90,Porphyromonas gingivalis [23],0.03 µg/mL
same,MIC50,Fusobacterium mortiferum,0.03 µg/mL
same,MIC90,Fusobacterium mortiferum,0.125 µg/mL
same,MIC,[24],0.06 µg/mL
same,MIC,[25],0.03 µg/mL
same,MIC,[26],0.125 µg/mL
